From PubChem BioAssay AID2060890 (Molecular Pharmacology Branch, DTP, NCI, 2025)

System: LG0703-F948-PDC complex spheroid viability
Assay: Anticancer human tumor LG0703-F948-PDC patient-derived lung adenocarcinoma cell line growth inhibition [RAS]
Details: for IC50: curve of first compound; for viability, T/C: stronger effect = lower value
Summary of the method: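 Tumour cells grown as complex spheroids with HUVEC endothelial cells and mesenchymal stem cells, treated with RAS pathway inhibitor combinations. Each agent spans half-log steps from near clinical Cmax, or 10 microM where Cmax is unknown.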
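Note: spheroids exposed to agents for 7 days.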
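Throughout, for viability, T/C: 100% = DMSO vehicle wells.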

C=CC(=O)N1CCN(c2nc(OCC3CCCN3C)nc3c(F)c(-c4nc(N)cc(C)c4C(F)(F)F)c(Cl)cc23)C(C)C1 (centres undefined) + C#Cc1c(F)ccc2cc(O)cc(-c3ncc4c(N5CC6CCC(C5)N6)nc(OCC56CCCN5CC(F)C6)nc4c3F)c12
IC50 (second compound 0.0316 µM): > 1000 nM | IC50 (second compound 0.1 µM): > 1000 nM | IC50 (second compound 0.316 µM): > 1000 nM | IC50 (second compound 1 µM): > 1000 nM | IC50 (second compound 3.16 µM): > 1000 nM | IC50 (second compound 10 µM): 197 nM | viability, T/C (second compound 0.0316 µM, first compound 0.00316 µM): 127% | viability, T/C (second compound 0.0316 µM, first compound 0.01 µM): 87.8% | viability, T/C (second compound 0.0316 µM, first compound 0.0316 µM): 111% | viability, T/C (second compound 0.0316 µM, first compound 0.1 µM): 120% | viability, T/C (second compound 0.0316 µM, first compound 0.316 µM): 109% | viability, T/C (second compound 0.0316 µM, first compound 1 µM): 85.2% | viability, T/C (second compound 0.1 µM, first compound 0.00316 µM): 98.7% | viability, T/C (second compound 0.1 µM, first compound 0.01 µM): 110% | viability, T/C (second compound 0.1 µM, first compound 0.0316 µM): 94.9% | viability, T/C (second compound 0.1 µM, first compound 0.1 µM): 104% | viability, T/C (second compound 0.1 µM, first compound 0.316 µM): 109% | viability, T/C (second compound 0.1 µM, first compound 1 µM): 97.8% | viability, T/C (second compound 0.316 µM, first compound 0.00316 µM): 89.5% | viability, T/C (second compound 0.316 µM, first compound 0.01 µM): 82.2% | viability, T/C (second compound 0.316 µM, first compound 0.0316 µM): 86.1% | viability, T/C (second compound 0.316 µM, first compound 0.1 µM): 72.6% | viability, T/C (second compound 0.316 µM, first compound 0.316 µM): 82% | viability, T/C (second compound 0.316 µM, first compound 1 µM): 84.6% | viability, T/C (second compound 1 µM, first compound 0.00316 µM): 63.7% | viability, T/C (second compound 1 µM, first compound 0.01 µM): 76.6% | viability, T/C (second compound 1 µM, first compound 0.0316 µM): 79.3% | viability, T/C (second compound 1 µM, first compound 0.1 µM): 66.2% | viability, T/C (second compound 1 µM, first compound 0.316 µM): 73.9% | viability, T/C (second compound 1 µM, first compound 1 µM): 75% | viability, T/C (second compound 3.16 µM, first compound 0.00316 µM): 61.8% | viability, T/C (second compound 3.16 µM, first compound 0.01 µM): 57.8% | viability, T/C (second compound 3.16 µM, first compound 0.0316 µM): 75.3% | viability, T/C (second compound 3.16 µM, first compound 0.1 µM): 63.6% | viability, T/C (second compound 3.16 µM, first compound 0.316 µM): 59.3% | viability, T/C (second compound 3.16 µM, first compound 1 µM): 62.9% | viability, T/C (second compound 10 µM, first compound 0.00316 µM): 51.9% | viability, T/C (second compound 10 µM, first compound 0.01 µM): 54.2% | viability, T/C (second compound 10 µM, first compound 0.0316 µM): 54.1% | viability, T/C (second compound 10 µM, first compound 0.1 µM): 47.5% | viability, T/C (second compound 10 µM, first compound 0.316 µM): 50.7% | viability, T/C (second compound 10 µM, first compound 1 µM): 47%

CC1(C)CCC(Nc2ncc(C(F)(F)F)c(-c3c[nH]c4c(P(C)(C)=O)c(C#N)ccc34)n2)CN1 (centres undefined) + C#Cc1c(F)ccc2cc(O)cc(-c3ncc4c(N5CC6CCC(C5)N6)nc(OCC56CCCN5CC(F)C6)nc4c3F)c12
IC50 (second compound 0.0316 µM): > 300 nM | IC50 (second compound 0.1 µM): > 300 nM | IC50 (second compound 0.316 µM): > 300 nM | IC50 (second compound 1 µM): > 300 nM | IC50 (second compound 3.16 µM): > 300 nM | IC50 (second compound 10 µM): 3.26 nM | viability, T/C (second compound 0.0316 µM, first compound 0.000949 µM): 83.1% | viability, T/C (second compound 0.0316 µM, first compound 0.003 µM): 65.2% | viability, T/C (second compound 0.0316 µM, first compound 0.00949 µM): 61.7% | viability, T/C (second compound 0.0316 µM, first compound 0.03 µM): 55.8% | viability, T/C (second compound 0.0316 µM, first compound 0.0949 µM): 63.3% | viability, T/C (second compound 0.0316 µM, first compound 0.3 µM): 67.2% | viability, T/C (second compound 0.1 µM, first compound 0.000949 µM): 93% | viability, T/C (second compound 0.1 µM, first compound 0.003 µM): 80.7% | viability, T/C (second compound 0.1 µM, first compound 0.00949 µM): 63.9% | viability, T/C (second compound 0.1 µM, first compound 0.03 µM): 69.5% | viability, T/C (second compound 0.1 µM, first compound 0.0949 µM): 76.9% | viability, T/C (second compound 0.1 µM, first compound 0.3 µM): 66.3% | viability, T/C (second compound 0.316 µM, first compound 0.000949 µM): 85.6% | viability, T/C (second compound 0.316 µM, first compound 0.003 µM): 58.7% | viability, T/C (second compound 0.316 µM, first compound 0.00949 µM): 62.5% | viability, T/C (second compound 0.316 µM, first compound 0.03 µM): 67.5% | viability, T/C (second compound 0.316 µM, first compound 0.0949 µM): 66% | viability, T/C (second compound 0.316 µM, first compound 0.3 µM): 71.2% | viability, T/C (second compound 1 µM, first compound 0.000949 µM): 62.3% | viability, T/C (second compound 1 µM, first compound 0.003 µM): 76.4% | viability, T/C (second compound 1 µM, first compound 0.00949 µM): 62.5% | viability, T/C (second compound 1 µM, first compound 0.03 µM): 59.5% | viability, T/C (second compound 1 µM, first compound 0.0949 µM): 68.9% | viability, T/C (second compound 1 µM, first compound 0.3 µM): 66.4% | viability, T/C (second compound 3.16 µM, first compound 0.000949 µM): 65.7% | viability, T/C (second compound 3.16 µM, first compound 0.003 µM): 57.5% | viability, T/C (second compound 3.16 µM, first compound 0.00949 µM): 45.1% | viability, T/C (second compound 3.16 µM, first compound 0.03 µM): 53% | viability, T/C (second compound 3.16 µM, first compound 0.0949 µM): 63.9% | viability, T/C (second compound 3.16 µM, first compound 0.3 µM): 54.4% | viability, T/C (second compound 10 µM, first compound 0.000949 µM): 58.3% | viability, T/C (second compound 10 µM, first compound 0.003 µM): 48.9% | viability, T/C (second compound 10 µM, first compound 0.00949 µM): 37.6% | viability, T/C (second compound 10 µM, first compound 0.03 µM): 47.7% | viability, T/C (second compound 10 µM, first compound 0.0949 µM): 50.3% | viability, T/C (second compound 10 µM, first compound 0.3 µM): 44.4%
